Assay results as given in ChEMBL document CHEMBL1817638, “Ligand polarizability contributes to tau fibril binding affinity” (Bioorg Med Chem, 2011).
Active and inactive are the calls of the source. The calls are words filed in the database; no cut-off is given here.

Tests used:
[1] = Displacement of Thioflavin T from synthetic Tau 2N4R aggregate by fluorescence assay at 1 uM probe concentration
[2] = Displacement of Thioflavin S from synthetic Tau 2N4R aggregate by fluorescence assay at 10 uM probe concentration
[3] = Displacement of Thioflavin S from Octadecyl sulfate-induced synthetic Tau 2N4R aggregate by fluorescence assay
[4] = Displacement of Thioflavin S from heparin-induced synthetic Tau 2N4R aggregate by fluorescence assay
[5] = Displacement of Thioflavin S from arachidonic acid-induced synthetic Tau 2N4R aggregate by fluorescence assay
[6] = molecular target: Microtubule-associated protein tau (Homo sapiens) (UniProt P10636); assay: Displacement of Thioflavin T from Octadecyl sulfate-induced synthetic Tau 0N4R aggregate at 17 pm to 10 uM by fluorescence assay at increasing probe concentration
[7] = molecular target: Microtubule-associated protein tau (Homo sapiens) (UniProt P10636); assay: Displacement of Thioflavin T from Octadecyl sulfate-induced synthetic Tau 0N4R aggregate at 17 pm to 10 uM by fluorescence assay at 0.1 uM probe concentration
[8] = Displacement of Thioflavin S from synthetic Tau 2N4R aggregate by fluorescence assay
[9] = molecular target: Microtubule-associated protein tau (Homo sapiens) (UniProt P10636); assay: Displacement of Thioflavin S from recombinant human PHF-tau expressed in Escherichia coli by fluorescence assay

Chain of Microtubule-associated protein tau (Homo sapiens) (P10636 whole entry): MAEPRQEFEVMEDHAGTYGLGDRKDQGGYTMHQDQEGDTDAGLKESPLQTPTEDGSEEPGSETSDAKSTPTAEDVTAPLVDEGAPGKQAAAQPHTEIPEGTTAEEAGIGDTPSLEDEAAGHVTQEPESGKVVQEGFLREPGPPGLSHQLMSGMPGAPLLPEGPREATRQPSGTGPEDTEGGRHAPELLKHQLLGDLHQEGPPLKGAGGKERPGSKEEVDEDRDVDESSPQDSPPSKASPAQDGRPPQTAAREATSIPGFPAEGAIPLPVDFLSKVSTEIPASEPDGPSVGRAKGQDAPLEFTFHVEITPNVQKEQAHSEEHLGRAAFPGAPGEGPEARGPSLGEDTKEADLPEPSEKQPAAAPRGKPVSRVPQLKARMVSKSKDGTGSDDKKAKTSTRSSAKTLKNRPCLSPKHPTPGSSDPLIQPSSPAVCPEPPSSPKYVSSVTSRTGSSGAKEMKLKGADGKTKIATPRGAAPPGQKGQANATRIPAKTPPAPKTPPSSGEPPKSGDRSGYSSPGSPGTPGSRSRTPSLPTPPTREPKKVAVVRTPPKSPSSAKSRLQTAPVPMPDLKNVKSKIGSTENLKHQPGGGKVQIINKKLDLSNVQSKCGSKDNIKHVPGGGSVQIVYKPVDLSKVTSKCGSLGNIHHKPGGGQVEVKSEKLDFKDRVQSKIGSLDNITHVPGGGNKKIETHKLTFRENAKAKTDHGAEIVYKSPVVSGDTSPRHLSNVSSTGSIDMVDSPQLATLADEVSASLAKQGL

Row | Structure (SMILES) | Activity [1] | Activity [2] | Activity [3] | Activity [4] | Activity [5] | further results
1 | Cc1cc2nc3ccc(N(C)C)cc3[s+]c2cc1N | Active | inactive | – | – | – | –
2 | Nc1ccc2nc3ccc(N)cc3[s+]c2c1 | Active | inactive | – | – | – | –
3 | O=C1C=CC(=C(c2ccc(O)cc2)c2ccc(O)cc2)C=C1 | Active | Active | – | – | – | –
4 | C/N=c1\ccc2nc3ccc(N)cc3sc-2c1 | Active | inactive | Active | Active | Active | –
5 | O=C(O)c1cc(/N=N/c2ccc(-c3ccc(/N=N/c4ccc(O)c(C(=O)O)c4)cc3)cc2)ccc1O | – | – | Active | Active | Active | –
6 | CN(C)c1ccc(-c2nc3ccccc3s2)cc1 | – | – | – | – | – | Activity [6]: inactive; Activity [7]: Active
7 | N=C1C=CC(=C(c2ccc(N)cc2)c2ccc(N)cc2)C=C1 | Active | Active | – | – | – | –
8 | CN(C)c1ccc(/C=C2/C(=O)Nc3ccccc32)cc1 | – | – | – | – | – | Activity [6]: Active; Activity [7]: Active
9 | CN(C)c1ccc(C(=C2C=CC(=[N+](C)C)C=C2)c2ccc(N(C)C)cc2)cc1 | Active | Active | – | – | – | –

Now from value to molecule, other results behind:

Row | Activity [1] | Activity [2] | Activity [3] | Activity [4] | Activity [5] | Structure (SMILES) | further results
10 | Active | inactive | Active | Active | Active | CN(C)c1ccc2nc3ccc(=[N+](C)C)cc-3sc2c1 | –
11 | Active | Active | – | – | – | CN(C)c1ccc(C(=C2C=CC(=[N+](C)C)C=C2)c2ccccc2)cc1 | –
12 | Active | inactive | – | – | – | CN(C)c1ccc2nc3ccc(N)cc3[s+]c2c1 | –
13 | – | – | Active | Active | Active | COc1ccc2nc(/N=N/c3ccc(N(C)C)cc3)sc2c1 | –
14 | – | – | Active | Active | Active | CN(C)c1ccc(/C=C2\C(=O)Nc3ccc(I)cc32)cc1 | Activity [8]: Active; Activity [9]: Active
15 | Active | inactive | – | – | – | CNc1ccc2nc3ccc(N(C)C)cc3[s+]c2c1 | –
